Here are results for 13 molecules from PubChem BioAssay AID1259407 (Chemical Carcinogenesis Research Information System (CCRIS), 2018).

Activity calls are given as the source filed them. How the calls were made is not given here.

The data set concerns CCRIS mutagenicity, Ames/micronucleus/aberration tests. The data set can be described thus: CCRIS mutagenicity studies.
Where [1] appears, read: Test System: AMES SALMONELLA TYPHIMURIUM, Strain/Indicator: TA98, Metabolic Activation: NONE, Method: PREINCUBATION
The mark [2] stands for this setting: Test System: AMES SALMONELLA TYPHIMURIUM, Strain/Indicator: TA100, Metabolic Activation: NONE, Method: PREINCUBATION
Where [3] appears, read: Test System: AMES SALMONELLA TYPHIMURIUM, Strain/Indicator: TA97, Metabolic Activation: NONE, Method: PREINCUBATION
Setting [4] is: Test System: AMES SALMONELLA TYPHIMURIUM, Strain/Indicator: TA102, Metabolic Activation: NONE, Method: PREINCUBATION
The mark [5] stands for this setting: Test System: AMES SALMONELLA TYPHIMURIUM, Strain/Indicator: TA98, Metabolic Activation: NONE, Method: STANDARD PLATE.
Where [6] appears, read: Test System: AMES SALMONELLA TYPHIMURIUM, Strain/Indicator: TA100, Metabolic Activation: NONE, Method: STANDARD PLATE.
Where [7] appears, read: Test System: AMES SALMONELLA TYPHIMURIUM, Strain/Indicator: TA100, Metabolic Activation: RAT, LIVER, S-9, AROCLOR 1254, Method: STANDARD PLATE.

With `NNc1ccc([N+](=O)[O-])cc1`, the mutagenic call runs as follows: under setting [1], “active; positive”; (Test System: AMES SALMONELLA TYPHIMURIUM, Strain/Indicator: TA98, Metabolic Activation: RAT, LIVER, S-9, KANECHLOR 500, Method: PREINCUBATION) “active; positive”; under setting [2], “active; positive”; (Test System: AMES SALMONELLA TYPHIMURIUM, Strain/Indicator: TA100, Metabolic Activation: RAT, LIVER, S-9, KANECHLOR 500, Method: PREINCUBATION) “active; positive”.
Regarding `CCNC(=O)/C=C/c1ccc([N+](=O)[O-])o1`, under setting [1], the mutagenic call is “active; positive”.
For the molecule `Nc1c(C(=O)N/N=C/c2ccccc2)[nH]c2ccccc12`, the mutagenic call reads like this: under setting [3], “inactive; negative”; (Test System: AMES SALMONELLA TYPHIMURIUM, Strain/Indicator: TA97, Metabolic Activation: S-9 (10%), Method: PREINCUBATION) “inactive; negative”; under setting [1], “inactive; negative”; (Test System: AMES SALMONELLA TYPHIMURIUM, Strain/Indicator: TA98, Metabolic Activation: S-9 (10%), Method: PREINCUBATION) “inactive; negative”; under setting [2], “inactive; negative”; (Test System: AMES SALMONELLA TYPHIMURIUM, Strain/Indicator: TA100, Metabolic Activation: S-9 (10%), Method: PREINCUBATION) “inactive; negative”. Moreover, the mutagenic call is, setting by setting: under setting [4], “inactive; negative”; (Test System: AMES SALMONELLA TYPHIMURIUM, Strain/Indicator: TA102, Metabolic Activation: S-9 (10%), Method: PREINCUBATION) “inactive; negative”.
Consider `Nc1ccc2cc(S(=O)(=O)O)c(N=Nc3ccc(N=Nc4ccc(NCCO)cc4NCCO)cc3OCCO)c(O)c2c1`, for which the mutagenic call runs as follows: under setting [5], “inactive; negative”; (Test System: AMES SALMONELLA TYPHIMURIUM, Strain/Indicator: TA98, Metabolic Activation: RAT, LIVER, S-9, AROCLOR 1254, Method: STANDARD PLATE) “active; positive”; under setting [6], “inactive; negative”; under setting [7], “inactive; negative”; (Test System: AMES SALMONELLA TYPHIMURIUM, Strain/Indicator: TA1538, Metabolic Activation: NONE, Method: STANDARD PLATE) “inactive; negative”; (Test System: AMES SALMONELLA TYPHIMURIUM, Strain/Indicator: TA1538, Metabolic Activation: RAT, LIVER, S-9, AROCLOR 1254, Method: STANDARD PLATE) “active; positive”.
As for `NC(CNCCCC[C@H](N)C(=O)O)C(=O)O` (stereo partly specified), the mutagenic call is “inactive; negative” under setting [3]; “inactive; negative” (Test System: AMES SALMONELLA TYPHIMURIUM, Strain/Indicator: TA97, Metabolic Activation: RAT, KIDNEY, S-9, AROCLOR 1254, Method: PREINCUBATION); “inactive; negative” (Test System: AMES SALMONELLA TYPHIMURIUM, Strain/Indicator: TA97, Metabolic Activation: RAT, LIVER, S-9, AROCLOR 1254, Method: PREINCUBATION); “inactive; negative” under setting [1]; “inactive; negative” (Test System: AMES SALMONELLA TYPHIMURIUM, Strain/Indicator: TA98, Metabolic Activation: RAT, KIDNEY, S-9, AROCLOR 1254, Method: PREINCUBATION); “inactive; negative” (Test System: AMES SALMONELLA TYPHIMURIUM, Strain/Indicator: TA98, Metabolic Activation: RAT, LIVER, S-9, AROCLOR 1254, Method: PREINCUBATION). Further, the mutagenic call was “inactive; negative” under setting [2]; “inactive; negative” (Test System: AMES SALMONELLA TYPHIMURIUM, Strain/Indicator: TA100, Metabolic Activation: RAT, KIDNEY, S-9, AROCLOR 1254, Method: PREINCUBATION); “inactive; negative” (Test System: AMES SALMONELLA TYPHIMURIUM, Strain/Indicator: TA100, Metabolic Activation: RAT, LIVER, S-9, AROCLOR 1254, Method: PREINCUBATION); “inactive; negative” under setting [4]; “inactive; negative” (Test System: AMES SALMONELLA TYPHIMURIUM, Strain/Indicator: TA102, Metabolic Activation: RAT, KIDNEY, S-9, AROCLOR 1254, Method: PREINCUBATION); “inactive; negative” (Test System: AMES SALMONELLA TYPHIMURIUM, Strain/Indicator: TA102, Metabolic Activation: RAT, LIVER, S-9, AROCLOR 1254, Method: PREINCUBATION).
Take `c1ccc2c(c1)cc1sc3cccc4ccc2c1c43`: the mutagenic call by setting is: under setting [5], “inactive; negative”; (Test System: AMES SALMONELLA TYPHIMURIUM, Strain/Indicator: TA98, Metabolic Activation: RAT, LIVER, S-9, AROCLOR 1254 (10%), Method: STANDARD PLATE) “active; positive”; under setting [6], “inactive; negative”; (Test System: AMES SALMONELLA TYPHIMURIUM, Strain/Indicator: TA100, Metabolic Activation: RAT, LIVER, S-9, AROCLOR 1254 (10%), Method: STANDARD PLATE) “inactive; negative”.
As to `COc1cccc2c1cc1c3c(cc4c(c32)OCO4)C(=O)N1[C@H]1O[C@H](CO)[C@@H](O)[C@H](O)[C@H]1O`, the mutagenic call (Test System: AMES SALMONELLA TYPHIMURIUM, Strain/Indicator: TM677/8-AZAGUANINE, Metabolic Activation: NONE, Method: SUSPENSION/PLATE) is “inactive; negative”.
For the molecule `CC(=O)OC[C@H]1OC(OC(C)=O)[C@H](NC(=O)N(C)N=O)[C@@H](OC(C)=O)[C@@H]1OC(C)=O` (stereo partly specified), the mutagenic call (Test System: CHINESE HAMSTER V-79, Strain/Indicator: V-79/8-AZAGUANINE, Metabolic Activation: NONE, Method: STANDARD PLATE) was “active; positive”.
As for `CSC[C@H](N)C(=O)O`, the mutagenic call by setting is: under setting [1], “inactive; negative”; (Test System: AMES SALMONELLA TYPHIMURIUM, Strain/Indicator: TA98, Metabolic Activation: RAT, LIVER OR KIDNEY, MICROSOMES, Method: PREINCUBATION) “inactive; negative”; under setting [2], “inactive; negative”; (Test System: AMES SALMONELLA TYPHIMURIUM, Strain/Indicator: TA100, Metabolic Activation: RAT, LIVER OR KIDNEY, MICROSOMES, Method: PREINCUBATION) “inactive; negative”; under setting [4], “inactive; negative”; (Test System: AMES SALMONELLA TYPHIMURIUM, Strain/Indicator: TA102, Metabolic Activation: RAT, LIVER OR KIDNEY, MICROSOMES, Method: PREINCUBATION) “inactive; negative”. In addition, the mutagenic call (Test System: AMES SALMONELLA TYPHIMURIUM, Strain/Indicator: TA2638, Metabolic Activation: NONE, Method: PREINCUBATION) was “inactive; negative” and the mutagenic call (Test System: AMES SALMONELLA TYPHIMURIUM, Strain/Indicator: TA2638, Metabolic Activation: RAT, LIVER OR KIDNEY, MICROSOMES, Method: PREINCUBATION) was “inactive; negative”.
For the molecule `COS(=O)(=O)c1ccc(C)cc1`, the mutagenic call is “active; positive” (End Point: IN VITRO MICRONUCLEUS, Test System: MOUSE LYMPHOMA L5178Y CELLS, Metabolic Activation: NONE); “active; positive” (End Point: IN VITRO MICRONUCLEUS, Test System: MOUSE LYMPHOMA L5178Y CELLS, Metabolic Activation: RAT, LIVER, S-9); “active; positive (p<0.01)” (End Point: In vitro micronucleus, Test System: Chinese Hamster Ovary (CHO-WBL) cells, Metabolic Activation: None); “active; positive” under setting [6]; “active; positive” (Test System: AMES SALMONELLA TYPHIMURIUM, Strain/Indicator: TA100, Metabolic Activation: RAT, LIVER, S-9, Method: STANDARD PLATE).
With `COC(=O)CCl`, the mutagenic call runs as follows: (Test System: AMES SALMONELLA TYPHIMURIUM, Strain/Indicator: TA102, Metabolic Activation: NONE, Method: STANDARD PLATE) “inactive; negative”; (Test System: AMES SALMONELLA TYPHIMURIUM, Strain/Indicator: TA2638, Metabolic Activation: NONE, Method: STANDARD PLATE) “inactive; negative”; (Test System: E. COLI, Strain/Indicator: WP2 (PKM101), Metabolic Activation: NONE, Method: STANDARD PLATE) “inactive; negative”; (Test System: E. COLI, Strain/Indicator: WP2 UVRA (PKM101), Metabolic Activation: NONE, Method: STANDARD PLATE) “inactive; negative”.
As to `CC(C)(C)c1cc(/C=C/c2cc(C(C)(C)C)c(O)c(C(C)(C)C)c2)cc(C(C)(C)C)c1O`, the mutagenic call was “inactive; negative” under setting [1]; “inactive; negative” (Test System: AMES SALMONELLA TYPHIMURIUM, Strain/Indicator: TA98, Metabolic Activation: RAT, LIVER, S-9, Method: PREINCUBATION); “inactive; negative” under setting [2]; “inactive; negative” (Test System: AMES SALMONELLA TYPHIMURIUM, Strain/Indicator: TA100, Metabolic Activation: RAT, LIVER, S-9, Method: PREINCUBATION).
For the molecule `O=C(CC(O)C(=O)OCCBr)OCCBr` (stereo unspecified), the mutagenic call reads like this: under setting [5], “inactive; negative”; under setting [6], “inactive; negative”; under setting [7], “active; positive”.
